According to patent US5597835A, “Acyl CoA:cholesterol acyltransferase inhibitors” (Korea Institute of Science and Technology, priority 1993, dated 1997):
Blank lines part the entries; values can stand above or below the compound they belong to.

Key:
[1] = biological target: T1, acyl CoA:cholesterol acyltransferase (ACAT) (Rattus norvegicus, UniProt Q7TQM4); assay: ACAT inhibiting activity (modified method of Tabas et al.; [1-14C] oleoyl-CoA, rat liver microsomal enzyme); assay type: biochemical; settings: 10 μM [1-14C] oleoyl-CoA, pH 7.4, 37° C., 15 minutes, read-out: IC50 (inhibitor concentration which reduces the activity of ACAT by 50%)
T1 construct: microsomal enzyme (10 mg/ml of protein) derived from rat liver tissue; from tissue; host or cells: rat liver microsomes
T1 sequence (Q7TQM4 1-524): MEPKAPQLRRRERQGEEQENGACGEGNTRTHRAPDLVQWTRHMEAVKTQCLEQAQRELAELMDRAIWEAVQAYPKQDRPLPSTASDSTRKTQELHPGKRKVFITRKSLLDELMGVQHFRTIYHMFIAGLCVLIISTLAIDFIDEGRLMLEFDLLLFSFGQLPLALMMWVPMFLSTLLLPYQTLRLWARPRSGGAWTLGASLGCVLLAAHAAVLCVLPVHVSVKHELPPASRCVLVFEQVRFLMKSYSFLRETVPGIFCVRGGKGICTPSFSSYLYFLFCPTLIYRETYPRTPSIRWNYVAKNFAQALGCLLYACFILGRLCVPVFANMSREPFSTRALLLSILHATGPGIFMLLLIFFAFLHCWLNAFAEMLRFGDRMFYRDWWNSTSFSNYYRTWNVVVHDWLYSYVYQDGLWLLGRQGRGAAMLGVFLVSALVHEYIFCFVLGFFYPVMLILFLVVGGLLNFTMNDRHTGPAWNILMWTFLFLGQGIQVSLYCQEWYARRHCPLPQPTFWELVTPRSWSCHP
Protocol: ACAT activity was determined as follows in accordance with a modified method of Tabas et al. described in J. Biol. Chem., 261, 3147-3154 (1986).
10 μl of sample, 4.0 μl of microsomal enzyme (10 mg/ml of protein) derived from rat liver tissue, 20 μl of analysis buffer(0.5M KH2 PO4, 10 mM dithiothreitol (DTT), pH 7.4), 15 μl of 40 mg/ml bovine serum albumin(essentially free of fatty acids), 2 μl of 20 mg/ml cholesterol and 41 μl of H2 O were mixed together and the resulting mixture was reacted at 37° C. for 15 minutes. 8 μl of [1-^14 C] oleoyl-CoA(0.05 μCi, final concentration of 10 μM) was added to the mixture and the reaction mixture was reacted at 37° C. for 15 minutes.
1 ml of isopropanol-heptane (4:1(v/v)) was added to the mixture to stop the reaction, 0.6 ml of heptane and 0.4 ml of said analysis buffer(5-fold diluted) were added thereto and the resulting mixture was centrifuged at 2,000 g for 2 minutes to obtain the supernatant.
5 ml of scintillation cocktail lipoluma (Lumac Co., U.S.A.) was added to 100 μl of the supernatant obtained above and enzyme activity was determined by detecting the amount of cholesteryl ester in the mixture based on the unit of count per minute (CPM) by using a liquid scintillation counter.
ACAT inhibiting activity was calculated in accordance with the following equation: [formula] wherein the blank composition had the same composition as the above sample but without enzyme and GERI-BP001 or its derivatives, and was reacted at 37° C.; and the control had the same composition as the above sample without GERI-BP001 or its derivatives and was reacted at 37° C. for 15 min.

female ICR mice = assay: Toxicity of GERI-BP001 in mice (subcutaneous injection); assay type: in vivo, mouse; settings: 500 mg/kg
Protocol: 5 female ICR mice weighing 23 g were administered via subcutaneous injection with 500 mg/kg of GERI-BP001.

rats = assay: Acute toxic effect in rats; assay type: in vivo, rat; settings: dose and route not stated
[2] = Solubility (physicochemical properties)

IC50 [1]: 140 to 150 µM
Structure (SMILES): CC(=O)O[C@H]1CC[C@]2(C)[C@H]3C(O)c4c(cc(-c5cccnc5)oc4=O)O[C@]3(C)CC[C@H]2C1(C)C (stereo partly shown) [GERI-BP001-A]

IC50 [1]: 70 to 80 µM
Structure (SMILES): CCC(=O)O[C@H]1CC[C@]2(C)[C@H]3Cc4c(cc(-c5cccnc5)oc4=O)O[C@]3(C)CC[C@H]2C1(C)C [GERI-BP001-B]

IC50 [1]: 110 to 120 µM
Structure (SMILES): CC(=O)O[C@H]1CC[C@]2(C)[C@H]3Cc4c(cc(-c5ccc[n+]([O-])c5)oc4=O)O[C@]3(C)CC[C@H]2C1(C)C [GERI-BP001-C]

Structure (SMILES): CC(=O)O[C@H]1CC[C@]2(C)[C@H]3Cc4c(cc(-c5cccnc5)oc4=O)O[C@]3(C)CC[C@H]2C1(C)C [GERI-BP001]
IC50 [1]: 70 to 80 µM
acute toxicity (judgement) (female ICR mice; female ICR mice, subcutaneous injection): does not cause acute toxicity
mortality (female ICR mice; female ICR mice, subcutaneous injection, until 4 days after administration): none of the mice was dead
activities of mice (female ICR mice; mouse, in vivo, sc): increased
excited state (female ICR mice; mouse, in vivo, sc): an excited state was induced
time after administration at which excited state was induced (female ICR mice; mouse, in vivo, sc): about 15 minutes
time after administration at which symptoms disappeared (female ICR mice; mouse, in vivo, sc): about 2 hours
acute toxic effect (rats): acute toxic effect was not found
Solubility ([2]; MeOH, CHCl3): soluble
Solubility ([2]; n-hexane, H2O): insoluble
